Assay results from patent publication US9695155B2, “Herbicidal substituted pyrimidinyloxy benzene compounds” (E. I. DU PONT DE NEMOURS AND COMPANY, priority 2013, dated 2017).

Legend:
corn [1] = assay: Test A preemergence; format: in vivo, Zea mays
Procedure, shortened: (§1)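 Injury scores run from 0, no effect, to 100, complete control, judged by eye against untreated plants roughly 10 days after treatment. Chemicals carried a surfactant in a non-phytotoxic solvent and went onto loam–sand soil preemergence or onto one- to two-leaf seedlings postemergence.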

Heteranthera limosa = assay: Test B flooded paddy test; format: in vivo; details: Flood, 250 g ai/ha; 0 to 100 scale where 0 is no effect and 100 is complete control
Procedure, shortened: (§2)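 Post-emergence paddy-water application at the 2-leaf stage, with 3 cm flood kept for the whole test. Response was judged visually relative to controls after 13 to 15 greenhouse days, 0 indicating no effect and 100 complete control.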

barnyardgrass [2] = assay: Test A preemergence; format: in vivo, Echinochloa crus-galli
Procedure, shortened: as §1

barnyardgrass [3] = assay: Test B flooded paddy test; format: in vivo, Echinochloa crus-galli; details: Flood, 250 g ai/ha; 0 to 100 scale where 0 is no effect and 100 is complete control
Procedure, shortened: as §2

morningglory [4] = assay: Test A postemergence; format: in vivo, Ipomoea spp.
Procedure, shortened: as §1

pigweed [5] = assay: Test A postemergence; format: in vivo, Amaranthus retroflexus
Procedure, shortened: as §1

pigweed [6] = assay: Test A preemergence; format: in vivo, Amaranthus retroflexus
Procedure, shortened: as §1

wheat [7] = assay: Test A preemergence; format: in vivo, Triticum aestivum
Procedure, shortened: as §1

rice = assay: Test B flooded paddy test; format: in vivo, Oryza sativa; details: Flood, 250 g ai/ha; 0 to 100 scale where 0 is no effect and 100 is complete control
Procedure, shortened: as §2

large (Lg) crabgrass [8] = assay: Test A preemergence; format: in vivo, Digitaria sanguinalis
Procedure, shortened: as §1

velvetleaf [9] = assay: Test A postemergence; format: in vivo, Abutilon theophrasti
Procedure, shortened: as §1

morningglory [10] = assay: Test A preemergence; format: in vivo, Ipomoea spp.
Procedure, shortened: as §1

sedge, umbrella = assay: Test B flooded paddy test; format: in vivo, Cyperus difformis; details: Flood, 250 g ai/ha; 0 to 100 scale where 0 is no effect and 100 is complete control
Procedure, shortened: as §2

barnyardgrass [11] = assay: Test A postemergence; format: in vivo, Echinochloa crus-galli
Procedure, shortened: as §1

large (Lg) crabgrass [12] = assay: Test A postemergence; format: in vivo, Digitaria sanguinalis
Procedure, shortened: as §1

velvetleaf [13] = assay: Test A preemergence; format: in vivo, Abutilon theophrasti
Procedure, shortened: as §1

giant foxtail [14] = assay: Test A preemergence; format: in vivo, Setaria faberii
Procedure, shortened: as §1

giant foxtail [15] = assay: Test A postemergence; format: in vivo, Setaria faberii
Procedure, shortened: as §1

corn [16] = assay: Test A postemergence; format: in vivo, Zea mays
Procedure, shortened: as §1

wheat [17] = assay: Test A postemergence; format: in vivo, Triticum aestivum
Procedure, shortened: as §1

[18] = 500 g ai/ha, 0 to 100 scale where 0 is no effect and 100 is complete control
[19] = 125 g ai/ha, 0 to 100 scale, 0 no effect, 100 complete control
[20] = 125 g ai/ha, 0 to 100 scale where 0 is no effect and 100 is complete control
[21] = 500 g ai/ha, 0 to 100 scale, 0 no effect, 100 complete control, approx. 10 days
[22] = 500 g ai/ha, 0 to 100 scale, 0 no effect, 100 complete control

CCOC(=O)c1cnn(-c2c(C#N)cccc2Oc2ncc(Br)cn2)c1 [Compound 294]
10: Velvetleaf plant response rating (0 to 100 scale) (velvetleaf [13]; 125 g ai/ha) | Plant response rating, Foxtail, Giant (giant foxtail [15]; [19])
40: Plant response rating, Corn (corn [16]; [18]) | Plant response rating, Wheat (wheat [17]; [18])
0: Corn plant response rating (0 to 100 scale) (corn [1]; 125 g ai/ha) | Corn plant response rating (corn [1]; [18]) | Plant response rating, Ducksalad (Heteranthera limosa) | Barnyardgrass plant response rating (0 to 100 scale, 0 is no effect, 100 is complete control) (barnyardgrass [2]; 125 g ai/ha) | Plant response rating, Barnyardgrass (barnyardgrass [3]) | Wheat plant response rating (0 to 100 scale) (wheat [7]; 125 g ai/ha) | Wheat plant response rating (wheat [7]; [18]) | Plant response rating, Rice (rice) | Morningglory plant response rating (0 to 100 scale) (morningglory [10]; 125 g ai/ha) | Morningglory plant response rating (morningglory [10]; [18]) | Plant response rating, Sedge, Umbrella (sedge, umbrella) | Plant response rating, Crabgrass, Large (large (Lg) crabgrass [12]; [19]) | Plant response rating, Corn (corn [16]; [19]) | Plant response rating, Wheat (wheat [17]; [19])
30: Plant response rating, Morningglory (morningglory [4]; [18]) | Crabgrass, Large plant response rating (0 to 100 scale) (large (Lg) crabgrass [8]; 125 g ai/ha) | Foxtail, Giant plant response rating (0 to 100 scale) (giant foxtail [14]; 125 g ai/ha)
50: Plant response rating, Velvetleaf (velvetleaf [9]; [19]) | Plant response rating, Crabgrass, Large (large (Lg) crabgrass [12]; [18]) | Plant response rating, Foxtail, Giant (giant foxtail [15]; [18])
70: Velvetleaf plant response rating (velvetleaf [13]; [18]) | Foxtail, Giant plant response rating (giant foxtail [14]; [18])
100: Pigweed plant response rating (0 to 100 scale) (pigweed [6]; 125 g ai/ha) | Pigweed plant response rating (pigweed [6]; [18])
20: Barnyardgrass plant response rating (barnyardgrass [2]; [18]) | Plant response rating, Morningglory (morningglory [4]; [19]) | Plant response rating, Barnyardgrass (barnyardgrass [11]; [19])
90: Plant response rating, Pigweed (pigweed [5]; [18])
60: Plant response rating, Pigweed (pigweed [5]; [19]) | Crabgrass, Large plant response rating (large (Lg) crabgrass [8]; [18]) | Plant response rating, Velvetleaf (velvetleaf [9]; [18]) | Plant response rating, Barnyardgrass (barnyardgrass [11]; [18])

Cc1cnc(Oc2ccccc2-n2cc(Cl)cn2)nc1 [Compound 15]
40: Crabgrass, Large plant response rating (large (Lg) crabgrass [8]; [20])
85: Plant response rating, Sedge, Umbrella (sedge, umbrella)
0: Corn plant response rating (corn [1]; [20]) | Corn plant response rating (corn [1]; [21]) | Wheat plant response rating (wheat [7]; [20]) | Wheat plant response rating (wheat [7]; [21]) | Morningglory plant response rating (morningglory [10]; [20]) | Morningglory plant response rating (morningglory [10]; [21]) | Plant response rating, Barnyardgrass (barnyardgrass [11]; [20]) | Plant response rating, Corn (corn [16]; [20]) | Plant response rating, Wheat (wheat [17]; [20])
30: Foxtail, Giant plant response rating (giant foxtail [14]; [20])
90: Pigweed plant response rating (pigweed [6]; [20]) | Plant response rating, Velvetleaf (velvetleaf [9]; [20])
75: Plant response rating, Ducksalad (Heteranthera limosa)
10: Plant response rating, Morningglory (morningglory [4]; [20]) | Plant response rating, Crabgrass, Large (large (Lg) crabgrass [12]; [20]) | Plant response rating, Foxtail, Giant (giant foxtail [15]; [20]) | Plant response rating, Wheat (wheat [17]; [22])
60: Plant response rating, Barnyardgrass (barnyardgrass [11]; [22]) | Plant response rating, Crabgrass, Large (large (Lg) crabgrass [12]; [22]) | Velvetleaf plant response rating (velvetleaf [13]; [20])
70: Plant response rating, Pigweed (pigweed [5]; [20]) | Plant response rating, Foxtail, Giant (giant foxtail [15]; [22])
100: Barnyardgrass plant response rating (barnyardgrass [2]; [21]) | Plant response rating, Pigweed (pigweed [5]; [22]) | Pigweed plant response rating (pigweed [6]; [21]) | Crabgrass, Large plant response rating (large (Lg) crabgrass [8]; [21]) | Plant response rating, Velvetleaf (velvetleaf [9]; [22]) | Velvetleaf plant response rating (velvetleaf [13]; [21]) | Foxtail, Giant plant response rating (giant foxtail [14]; [21])
20: Barnyardgrass plant response rating (barnyardgrass [2]; [20]) | Plant response rating, Barnyardgrass (barnyardgrass [3]) | Plant response rating, Morningglory (morningglory [4]; [22]) | Plant response rating, Rice (rice) | Plant response rating, Corn (corn [16]; [22])

CC1(C)OB(c2cnn(-c3c(C#N)cccc3Oc3ncc(Cl)cn3)c2)OC1(C)C [Compound 285]
40: Plant response rating, Morningglory (morningglory [4]; [18]) | Morningglory plant response rating (morningglory [10]; [18]) | Plant response rating, Crabgrass, Large (large (Lg) crabgrass [12]; [18]) | Velvetleaf plant response rating (velvetleaf [13]; [18])
80: Plant response rating, Pigweed (pigweed [5]; [19]) | Pigweed plant response rating (0 to 100 scale) (pigweed [6]; 125 g ai/ha) | Crabgrass, Large plant response rating (0 to 100 scale) (large (Lg) crabgrass [8]; 125 g ai/ha) | Plant response rating, Velvetleaf (velvetleaf [9]; [18])
10: Plant response rating, Crabgrass, Large (large (Lg) crabgrass [12]; [19]) | Velvetleaf plant response rating (0 to 100 scale) (velvetleaf [13]; 125 g ai/ha)
100: Plant response rating, Pigweed (pigweed [5]; [18]) | Pigweed plant response rating (pigweed [6]; [18]) | Crabgrass, Large plant response rating (large (Lg) crabgrass [8]; [18]) | Foxtail, Giant plant response rating (giant foxtail [14]; [18])
60: Plant response rating, Foxtail, Giant (giant foxtail [15]; [18])
0: Corn plant response rating (0 to 100 scale) (corn [1]; 125 g ai/ha) | Plant response rating, Ducksalad (Heteranthera limosa) | Barnyardgrass plant response rating (0 to 100 scale, 0 is no effect, 100 is complete control) (barnyardgrass [2]; 125 g ai/ha) | Plant response rating, Barnyardgrass (barnyardgrass [3]) | Wheat plant response rating (0 to 100 scale) (wheat [7]; 125 g ai/ha) | Plant response rating, Rice (rice) | Morningglory plant response rating (0 to 100 scale) (morningglory [10]; 125 g ai/ha) | Plant response rating, Sedge, Umbrella (sedge, umbrella) | Plant response rating, Barnyardgrass (barnyardgrass [11]; [19]) | Plant response rating, Foxtail, Giant (giant foxtail [15]; [19]) | Plant response rating, Corn (corn [16]; [19]) | Plant response rating, Wheat (wheat [17]; [19])
20: Corn plant response rating (corn [1]; [18]) | Wheat plant response rating (wheat [7]; [18]) | Foxtail, Giant plant response rating (0 to 100 scale) (giant foxtail [14]; 125 g ai/ha) | Plant response rating, Wheat (wheat [17]; [18])
30: Barnyardgrass plant response rating (barnyardgrass [2]; [18]) | Plant response rating, Morningglory (morningglory [4]; [19]) | Plant response rating, Velvetleaf (velvetleaf [9]; [19]) | Plant response rating, Barnyardgrass (barnyardgrass [11]; [18]) | Plant response rating, Corn (corn [16]; [18])
